Test systems include SN12C; OVCAR-8; SNB-75; PC-3; OVCAR-4; UACC-62; SK-MEL-28; NCI-H522; UO-31; HT-29; EKVX; SK-OV-3; HCT-15; SK-MEL-5; IGROV-1; MDA-MB-231; HOP-62; NCI-H23; RPMI-8226; A498.
Common to all, as to test: NCI anticancer screen, dose series, 48 h

Here are results for eleven molecules from ChEMBL document CHEMBL1201862, “PubChem BioAssay data set” (2004).

Values joined by “and” are separate entries in the source; they are usually repeats but may differ in a detail not shown here. Equal entries are not always repeated.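 Test compounds were applied to cells in 96-well plates for 48 hours at 5 doses. Abbreviation: GI50, concentration required for 50% inhibition of growth.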 Active and inactive are the calls of the source. Rule as the data show it: active = GI50 up to about 1.1 µM and inactive = higher.

Take `SCc1ccc(CS)s1`: the GI50 in the assay with SN12C was > 100 µM (inactive); in the assay on OVCAR-8, > 100 µM (inactive); in the assay with SNB-75, 68.5 µM (inactive); in the assay with PC-3 it was > 100 µM (inactive); in the assay on OVCAR-4, > 100 µM (inactive); in the assay with UACC-62 it was > 100 µM (inactive). Moreover, the GI50 with SK-MEL-28, with NCI-H522, in the assay on UO-31, in the assay on HT-29, with EKVX and in the assay with SK-OV-3 was > 100 µM (inactive) throughout. Also, the GI50 in the assay with HCT-15 was more than 100 µM; with SK-MEL-5, > 100 µM (inactive); with IGROV-1 it was > 100 µM (inactive); with MDA-MB-231, > 100 µM (inactive); in the assay on HOP-62 it was > 100 µM (inactive); with NCI-H23, > 100 µM (inactive).

`O=C1CCCC(=O)N1n1c(Cc2ccc(Cl)cc2)n[nH]c1=O`: the GI50 in the assay on SN12C, in the assay with OVCAR-8, in the assay with SNB-75, with PC-3, with OVCAR-4 and in the assay with RPMI-8226 was > 100 µM (inactive) throughout. For the same molecule, the GI50 in the assay on UACC-62, with SK-MEL-28, in the assay with NCI-H522, in the assay on UO-31, in the assay on HT-29 and in the assay on EKVX was > 100 µM (inactive) throughout. Besides, the GI50 in the assay on SK-OV-3 was > 100 µM (inactive); in the assay with HCT-15, more than 100 µM; in the assay with SK-MEL-5 it was > 100 µM (inactive); in the assay on IGROV-1, > 100 µM (inactive); in the assay on MDA-MB-231 it was > 100 µM (inactive); with HOP-62, > 100 µM (inactive). Besides, the GI50 with NCI-H23 was > 100 µM (inactive).

As for `CC1(C)CN=C(Nc2ccc(F)c(F)c2)S1`, the GI50 in the assay with SN12C, in the assay on OVCAR-8, with SNB-75, with PC-3, in the assay on OVCAR-4 and with RPMI-8226 was > 100 µM (inactive) throughout. Further, the GI50 with UACC-62, with SK-MEL-28, in the assay with NCI-H522, in the assay with UO-31, in the assay with HT-29 and with EKVX was > 100 µM (inactive) in each case. In addition, the GI50 with SK-OV-3 is > 100 µM (inactive); in the assay with HCT-15, more than 100 µM; in the assay with SK-MEL-5, > 100 µM (inactive); with IGROV-1, > 100 µM (inactive); in the assay with MDA-MB-231 it was > 100 µM (inactive); in the assay on HOP-62, > 100 µM (inactive). In the assay with NCI-H23, the GI50 is > 100 µM (inactive).

As to `CC(C(=O)N1C(=O)N(C(=O)C(C)C(O)c2ccccc2)C(c2ccccc2)C1c1ccccc1)C(O)c1ccccc1` (centres undefined), the GI50 in the assay on SN12C is 12.9 µM (inactive); in the assay on OVCAR-8 it was 7.98 µM (inactive); with SNB-75, 3.9 µM (inactive); in the assay on OVCAR-4 it was 13.4 µM (inactive); in the assay on RPMI-8226, 4.01 µM (inactive); with UACC-62, 10.5 µM (inactive). For the same molecule, the GI50 is 15.8 µM (inactive) with SK-MEL-28; 7.19 µM (inactive) in the assay with NCI-H522; 5.33 µM (inactive) in the assay with UO-31; 5 µM (inactive) in the assay on HT-29; 15.5 µM in the assay with HCT-15; > 10 µM (inactive) in the assay on SK-MEL-5. Moreover, the GI50 was 12.7 µM (inactive) in the assay on IGROV-1, 16.6 µM (inactive) in the assay on MDA-MB-231, 12.3 µM (inactive) in the assay on HOP-62 and 16.5 µM (inactive) with NCI-H23.

With `CNC(=O)N1N[C@H](c2ccccc2)[C@@H]1c1ccccc1.OB(O)O`, the GI50 is 25.5 µM (inactive) with SN12C; 14.5 µM (inactive) with OVCAR-8; 15.6 µM (inactive) with SNB-75; 28.1 µM (inactive) in the assay on PC-3; 42 µM (inactive) in the assay with OVCAR-4; 13.2 µM (inactive) in the assay with UACC-62. Also, the GI50 in the assay with SK-MEL-28 was 18 µM (inactive); with UO-31, 22.5 µM (inactive); in the assay on HT-29, 16.4 µM (inactive); in the assay with EKVX it was 22.2 µM (inactive); in the assay with SK-OV-3 it was 34 µM (inactive); with A498 it was 20.6 µM (inactive). The GI50 in the assay on HCT-15 is 24.3 µM; with SK-MEL-5 it was 16.3 µM (inactive); in the assay with IGROV-1 it was 18.6 µM (inactive); with MDA-MB-231, 28.8 µM (inactive); with HOP-62 it was 28.6 µM (inactive); with NCI-H23, 22.6 µM (inactive).

For `Cc1cnc2sn(-c3ccc(Br)cc3)c(=O)c2c1`, the GI50 in the assay with SN12C is 59.6 µM (inactive); in the assay with OVCAR-8, 62.5 µM (inactive); with SNB-75 it was 84.9 µM (inactive); in the assay on PC-3, 36.6 µM (inactive); with OVCAR-4 it was 26.2 µM (inactive); in the assay with RPMI-8226, 33.2 µM (inactive). For the same molecule, the GI50 in the assay with UACC-62 was 33.4 µM (inactive); with SK-MEL-28, 27.7 µM (inactive); in the assay on NCI-H522 it was 2.37 µM (inactive); in the assay on UO-31 it was 43.9 µM (inactive); with HT-29, 28.9 µM (inactive); with EKVX, 41.2 µM (inactive). For the same molecule, the GI50 was 41.6 µM (inactive) in the assay with SK-OV-3; 26.6 µM in the assay on HCT-15; 42.6 µM (inactive) with SK-MEL-5; 53.6 µM (inactive) with IGROV-1; 30.5 µM (inactive) in the assay on MDA-MB-231; 27.7 µM (inactive) in the assay with HOP-62. The GI50 in the assay on NCI-H23 is 33 µM (inactive).

As to `CC(=O)SCCC(NC(=S)Nc1ccccc1)P(=O)(Oc1ccccc1)Oc1ccccc1` (centres undefined), the GI50 with SN12C, in the assay on OVCAR-8, in the assay on SNB-75, in the assay on OVCAR-4, in the assay on UACC-62 and with SK-MEL-28 was > 100 µM (inactive) throughout. Also, the GI50 in the assay with NCI-H522 is > 100 µM (inactive); in the assay on UO-31, > 100 µM (inactive); with HT-29, > 100 µM (inactive); in the assay on EKVX, > 100 µM (inactive); in the assay on SK-OV-3, > 100 µM (inactive); in the assay on HCT-15, more than 100 µM. In addition, the GI50 in the assay on IGROV-1, with MDA-MB-231, in the assay on HOP-62 and in the assay with NCI-H23 was > 100 µM (inactive) in each case.

Turning to `COC(=O)C1=COC(C)C2CN3CCc4c([nH]c5cc(OC)c(OC)cc45)C3CC12` (centres undefined), the GI50 is > 100 µM (inactive) and 68.1 µM (inactive) in the assay with SN12C; 64.9 µM (inactive) and 37 µM (inactive) with PC-3; 27.9 µM (inactive) in the assay on RPMI-8226; 99.8 µM (inactive) and 88.7 µM (inactive) in the assay with UACC-62; 51.1 µM (inactive) and 54.2 µM (inactive) in the assay on UO-31; 34.2 µM (inactive) and 34.7 µM (inactive) in the assay on HT-29. Besides, the GI50 in the assay with EKVX is 54.6 µM (inactive) and 72.8 µM (inactive); in the assay on SK-OV-3, > 100 µM (inactive); with A498, > 100 µM (inactive) and 87.7 µM (inactive); in the assay on HCT-15 it was 43.8 µM and 25.1 µM; in the assay with SK-MEL-5 it was 50.4 µM (inactive) and 36.8 µM (inactive); in the assay with MDA-MB-231 it was > 100 µM (inactive). Besides, the GI50 in the assay on HOP-62 was 89.7 µM (inactive); in the assay with NCI-H23 it was 70.5 µM (inactive) and 37.6 µM (inactive).

As for `O=C1C=CC(=O)c2c1c1c(c3c2C2c4ccccc4C3c3ccccc32)C2c3ccccc3C1c1ccccc12`, the GI50 with SN12C was 3.67 µM (inactive); in the assay with OVCAR-8 it was 1.53 µM (inactive); with SNB-75 it was 10.2 µM (inactive); with PC-3, 1.74 µM (inactive); with OVCAR-4 it was 2.04 µM (inactive); in the assay on RPMI-8226, 1.79 µM (inactive). The GI50 is 2.07 µM (inactive) in the assay on UACC-62; 1.42 µM (inactive) in the assay with SK-MEL-28; 0.515 µM (active) with NCI-H522; 2.04 µM (inactive) in the assay with UO-31; 2.11 µM (inactive) with HT-29; 3.66 µM (inactive) in the assay with EKVX. The GI50 in the assay on SK-OV-3 was 15 µM (inactive); in the assay on A498, 2.9 µM (inactive); in the assay on HCT-15 it was 1.54 µM; in the assay with SK-MEL-5, 3.3 µM (inactive); in the assay with IGROV-1, 7.06 µM (inactive); in the assay with HOP-62, 19.5 µM (inactive). Further, the GI50 with NCI-H23 was 2.72 µM (inactive).

Take `O=C(/C=C\c1ccc(Cl)c(Cl)c1)c1ccc(Cl)cc1Cl`: the GI50 is 24.9 µM (inactive) in the assay with SN12C; 19.1 µM (inactive) in the assay with OVCAR-8; 17.1 µM (inactive) in the assay on SNB-75; 24.4 µM (inactive) with OVCAR-4; 3.18 µM (inactive) in the assay with RPMI-8226; 18.5 µM (inactive) with UACC-62. Also, the GI50 in the assay on SK-MEL-28 is > 10 µM (inactive); in the assay with NCI-H522, 15.9 µM (inactive); in the assay on UO-31, > 10 µM (inactive); in the assay on HT-29, 16.8 µM (inactive); in the assay on EKVX it was 23.4 µM (inactive); in the assay on SK-OV-3, 19.9 µM (inactive). Besides, the GI50 with A498 is > 10 µM (inactive); in the assay on HCT-15, 4.15 µM; in the assay with SK-MEL-5, 14.9 µM (inactive); with IGROV-1 it was 18 µM (inactive); in the assay with HOP-62, > 10 µM (inactive); in the assay with NCI-H23, 0.65 µM (active).

As for `CCSc1nnc2c(-c3ccccc3)n[nH]c2n1`, the GI50 with OVCAR-8 is 66.8 µM (inactive); in the assay with SNB-75, 27.2 µM (inactive); in the assay with PC-3, > 100 µM (inactive); in the assay on OVCAR-4, > 100 µM (inactive); in the assay with RPMI-8226 it was > 100 µM (inactive); in the assay on UACC-62, > 100 µM (inactive). Also, the GI50 was > 100 µM (inactive) in the assay on SK-MEL-28; > 100 µM (inactive) in the assay on NCI-H522; > 100 µM (inactive) in the assay on UO-31; > 100 µM (inactive) in the assay with HT-29; 16 µM (inactive) with EKVX; 44.3 µM (inactive) in the assay on SK-OV-3. For the same molecule, the GI50 with HCT-15 was more than 100 µM; with SK-MEL-5, > 100 µM (inactive); in the assay on IGROV-1, > 100 µM (inactive); in the assay on MDA-MB-231, > 100 µM (inactive); in the assay on HOP-62, 59.8 µM (inactive); with NCI-H23, > 100 µM (inactive).
